Results from ChEMBL document CHEMBL1201862, “PubChem BioAssay data set” (2004).
Activity calls are given as the source filed them.

Legend:
[1] = biological target: Dual specificity mitogen-activated protein kinase kinase 1 (Homo sapiens, UniProt Q02750); test: Navigating the Kinome. Panel member name: MAP2K1; assay type: functional
[2] = biological target: Tyrosine-protein kinase JAK2 (Homo sapiens, UniProt O60674); assay type: functional;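 note: JAK2 tested as one member of a kinase panel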
[3] = biological target: Serine/threonine-protein kinase TBK1 (Homo sapiens, UniProt Q9UHD2); test: Navigating the Kinome. Panel member name: TBK1; assay type: functional
[4] = biological target: 5'-AMP-activated protein kinase catalytic subunit alpha-1 (Homo sapiens, UniProt Q13131); assay type: functional
[5] = biological target: Proto-oncogene tyrosine-protein kinase receptor Ret (Homo sapiens, UniProt P07949); assay type: functional;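 note: measured within a kinome-wide profiling panel, RET as the panel member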
[6] = biological target: Tyrosine-protein kinase SYK (Homo sapiens, UniProt P43405); assay type: functional
[7] = biological target: Tyrosine-protein kinase receptor TYRO3 (Homo sapiens, UniProt Q06418); assay type: functional;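 note: TYRO3 value obtained as one member of a kinome-wide profiling panel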
[8] = biological target: Testis-specific serine/threonine-protein kinase 2 (Homo sapiens, UniProt Q96PF2); assay type: functional;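 note: part of the Navigating the Kinome panel, target entry STK22B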
Aurora kinase A = biological target: T1, Aurora kinase A (Homo sapiens, UniProt O14965); assay type: functional;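 note: value from the Navigating the Kinome kinase panel profiling, panel entry STK6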
T1 sequence (O14965 whole entry): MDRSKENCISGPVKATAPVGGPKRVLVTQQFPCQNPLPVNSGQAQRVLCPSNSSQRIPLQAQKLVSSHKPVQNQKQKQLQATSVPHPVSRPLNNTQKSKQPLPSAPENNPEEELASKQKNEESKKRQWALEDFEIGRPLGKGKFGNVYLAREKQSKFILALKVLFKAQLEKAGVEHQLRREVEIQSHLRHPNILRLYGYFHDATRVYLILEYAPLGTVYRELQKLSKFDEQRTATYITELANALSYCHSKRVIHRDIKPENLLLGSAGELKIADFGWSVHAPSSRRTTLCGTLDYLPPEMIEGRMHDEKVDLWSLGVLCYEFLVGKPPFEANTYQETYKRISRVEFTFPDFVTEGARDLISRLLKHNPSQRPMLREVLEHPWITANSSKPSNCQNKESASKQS

[9] = biological target: Cell division cycle 7-related protein kinase (Homo sapiens, UniProt O00311); assay type: functional;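 note: value obtained from a kinome-wide kinase panel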
[10] = biological target: Casein kinase I isoform gamma-1 (Homo sapiens, UniProt Q9HCP0); assay type: functional;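 note: measured as the CSNK1G1 member of a kinome profiling panel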
[11] = biological target: Homeodomain-interacting protein kinase 2 (Homo sapiens, UniProt Q9H2X6); assay type: functional;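 note: measured within a kinome-wide kinase profiling panel, HIPK2 being one panel member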
[12] = biological target: Glycogen synthase kinase-3 alpha (Homo sapiens, UniProt P49840); assay type: functional;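 note: GSK3A result taken from a broad kinome-wide kinase panel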
[13] = biological target: Dual specificity tyrosine-phosphorylation-regulated kinase 3 (Homo sapiens, UniProt O43781); assay type: functional;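 note: measured as one member of a broad kinase panel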
[14] = biological target: Hepatocyte growth factor receptor (Homo sapiens, UniProt P08581); assay type: functional;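 note: kinase panel profiling across the kinome, with MET as the panel member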
Activated CDC42 kinase 1 = Activated CDC42 kinase 1 (Homo sapiens, UniProt Q07912); test: Navigating the Kinome. Panel member name: ACK1; assay type: functional
[15] = biological target: Tyrosine-protein kinase ABL1 (Homo sapiens, UniProt P00519); assay type: functional
[16] = biological target: Insulin-like growth factor 1 receptor (Homo sapiens, UniProt P08069); test: Navigating the Kinome. Panel member name: IGF1R; assay type: functional
Misshapen-like kinase 1 = Misshapen-like kinase 1 (Homo sapiens, UniProt Q8N4C8); assay type: functional;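 note: kinome panel screen with MINK as the panel member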
[17] = biological target: cAMP-dependent protein kinase catalytic subunit PRKX (Homo sapiens, UniProt P51817); assay type: functional
[18] = biological target: Maternal embryonic leucine zipper kinase (Homo sapiens, UniProt Q14680); assay type: functional
[19] = biological target: Leucine-rich repeat serine/threonine-protein kinase 2 (Homo sapiens, UniProt Q5S007); assay type: functional;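 note: value from a broad kinome-wide panel profiling study in which LRRK2 was one of the kinases tested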
Aurora kinase B = Aurora kinase B (Homo sapiens, UniProt Q96GD4); assay type: functional
[20] = biological target: Cyclin-dependent kinase 19 (Homo sapiens, UniProt Q9BWU1); test: Navigating the Kinome. Panel member name: CDC2L6; assay type: functional
[21] = biological target: Serine/threonine-protein kinase Nek2 (Homo sapiens, UniProt P51955); assay type: functional
[22] = biological target: Glycogen synthase kinase-3 beta (Homo sapiens, UniProt P49841); assay type: functional;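 note: value comes from a broad kinome profiling panel, with GSK3B as the panel member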
[23] = biological target: Cyclin-dependent kinase 9 (Homo sapiens, UniProt P50750); assay type: functional;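 note: value from the CDK9 entry of a kinome-spanning kinase panel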
[24] = biological target: cAMP-dependent protein kinase catalytic subunit alpha (Homo sapiens, UniProt P17612); assay type: functional
[25] = biological target: Macrophage-stimulating protein receptor (Homo sapiens, UniProt Q04912); test: Navigating the Kinome. Panel member name: MST1R; assay type: functional
[26] = biological target: Macrophage colony-stimulating factor 1 receptor (Homo sapiens, UniProt P07333); assay type: functional;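 note: value comes from the Navigating the Kinome screening panel, CSF1R member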
[27] = biological target: Dual specificity mitogen-activated protein kinase kinase 2 (Homo sapiens, UniProt P36507); test: Navigating the Kinome. Panel member name: MAP2K2; assay type: functional
[28] = biological target: Dual specificity tyrosine-phosphorylation-regulated kinase 1A (Homo sapiens, UniProt Q13627); assay type: functional;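 note: measured against DYRK1A as one member of a broad kinome profiling panel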
[29] = biological target: Calcium/calmodulin-dependent protein kinase type II subunit alpha (Homo sapiens, UniProt Q9UQM7); test: Navigating the Kinome. Panel member name: CAMK2A; assay type: functional
[30] = biological target: Tyrosine-protein kinase FRK (Homo sapiens, UniProt P42685); assay type: functional;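 note: FRK tested as one member of a kinome panel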
[31] = system: Streptococcus sp. 'group A'; test: growth inhibition of control SK(-) GAS strain, dose response, counter-screen for streptokinase expression inhibitor project, luminescence, kanamycin, BacTiterGlo, confirmation (AID 1900); assay type: functional, organism-based
[32] = biological target: Tyrosine-protein kinase Lck (Homo sapiens, UniProt P06239); assay type: functional;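 note: lck was assayed as one member of a kinase panel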
Focal adhesion kinase 1 = Focal adhesion kinase 1 (Homo sapiens, UniProt Q05397); assay type: functional;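 note: measured as one member of a kinome panel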
[33] = biological target: Mitogen-activated protein kinase kinase kinase kinase 4 (Homo sapiens, UniProt O95819); assay type: functional
Mitogen-activated protein kinase kinase kinase kinase 4, sequence (O95819 whole entry): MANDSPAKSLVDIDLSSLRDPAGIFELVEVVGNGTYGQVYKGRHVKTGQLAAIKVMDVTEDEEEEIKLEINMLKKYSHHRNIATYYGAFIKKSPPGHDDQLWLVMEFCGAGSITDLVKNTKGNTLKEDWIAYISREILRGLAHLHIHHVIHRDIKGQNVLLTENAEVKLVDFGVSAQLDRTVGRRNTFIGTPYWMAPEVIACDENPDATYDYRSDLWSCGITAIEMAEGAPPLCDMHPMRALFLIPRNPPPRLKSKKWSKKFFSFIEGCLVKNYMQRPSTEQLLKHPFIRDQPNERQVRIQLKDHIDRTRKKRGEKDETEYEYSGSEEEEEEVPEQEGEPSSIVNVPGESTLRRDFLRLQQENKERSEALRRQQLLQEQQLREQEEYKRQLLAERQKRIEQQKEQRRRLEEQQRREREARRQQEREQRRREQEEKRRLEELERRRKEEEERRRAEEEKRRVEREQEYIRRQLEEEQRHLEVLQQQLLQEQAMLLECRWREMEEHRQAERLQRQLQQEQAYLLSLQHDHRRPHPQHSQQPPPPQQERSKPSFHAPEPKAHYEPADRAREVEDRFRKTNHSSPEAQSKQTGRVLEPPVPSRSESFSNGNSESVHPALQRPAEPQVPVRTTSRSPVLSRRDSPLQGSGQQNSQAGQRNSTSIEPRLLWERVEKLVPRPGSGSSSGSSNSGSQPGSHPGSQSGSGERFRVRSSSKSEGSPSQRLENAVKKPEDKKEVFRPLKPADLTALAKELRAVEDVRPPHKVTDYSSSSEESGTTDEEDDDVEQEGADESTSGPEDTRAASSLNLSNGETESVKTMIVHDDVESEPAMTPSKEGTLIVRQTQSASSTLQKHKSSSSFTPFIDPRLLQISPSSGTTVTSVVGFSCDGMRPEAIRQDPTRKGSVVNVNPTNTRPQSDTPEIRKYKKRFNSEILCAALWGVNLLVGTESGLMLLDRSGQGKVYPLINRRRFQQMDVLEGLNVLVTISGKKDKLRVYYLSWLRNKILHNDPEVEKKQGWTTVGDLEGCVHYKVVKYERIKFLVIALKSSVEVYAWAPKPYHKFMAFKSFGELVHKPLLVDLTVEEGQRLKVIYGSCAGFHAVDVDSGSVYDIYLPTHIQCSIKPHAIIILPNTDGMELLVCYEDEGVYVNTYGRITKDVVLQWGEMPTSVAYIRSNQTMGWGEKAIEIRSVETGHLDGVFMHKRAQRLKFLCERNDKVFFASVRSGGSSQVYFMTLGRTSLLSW

Cell division cycle 7-related protein kinase, sequence (O00311 whole entry, canonical isoform): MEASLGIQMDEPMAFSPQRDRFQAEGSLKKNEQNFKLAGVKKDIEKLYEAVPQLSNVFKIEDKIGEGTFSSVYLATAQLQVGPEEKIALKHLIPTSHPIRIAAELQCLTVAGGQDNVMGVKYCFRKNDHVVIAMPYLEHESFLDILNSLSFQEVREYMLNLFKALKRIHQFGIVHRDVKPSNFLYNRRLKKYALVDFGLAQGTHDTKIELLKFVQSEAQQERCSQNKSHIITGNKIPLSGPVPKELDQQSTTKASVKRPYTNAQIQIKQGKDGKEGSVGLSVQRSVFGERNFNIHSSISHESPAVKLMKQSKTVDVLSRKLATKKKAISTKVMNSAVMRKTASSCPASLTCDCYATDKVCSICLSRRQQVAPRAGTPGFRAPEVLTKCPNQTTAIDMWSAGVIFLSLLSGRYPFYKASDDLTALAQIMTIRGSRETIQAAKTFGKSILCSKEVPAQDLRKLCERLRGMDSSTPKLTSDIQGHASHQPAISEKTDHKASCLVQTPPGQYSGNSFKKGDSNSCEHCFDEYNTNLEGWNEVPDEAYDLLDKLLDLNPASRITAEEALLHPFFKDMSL
Maternal embryonic leucine zipper kinase, sequence (Q14680 whole entry): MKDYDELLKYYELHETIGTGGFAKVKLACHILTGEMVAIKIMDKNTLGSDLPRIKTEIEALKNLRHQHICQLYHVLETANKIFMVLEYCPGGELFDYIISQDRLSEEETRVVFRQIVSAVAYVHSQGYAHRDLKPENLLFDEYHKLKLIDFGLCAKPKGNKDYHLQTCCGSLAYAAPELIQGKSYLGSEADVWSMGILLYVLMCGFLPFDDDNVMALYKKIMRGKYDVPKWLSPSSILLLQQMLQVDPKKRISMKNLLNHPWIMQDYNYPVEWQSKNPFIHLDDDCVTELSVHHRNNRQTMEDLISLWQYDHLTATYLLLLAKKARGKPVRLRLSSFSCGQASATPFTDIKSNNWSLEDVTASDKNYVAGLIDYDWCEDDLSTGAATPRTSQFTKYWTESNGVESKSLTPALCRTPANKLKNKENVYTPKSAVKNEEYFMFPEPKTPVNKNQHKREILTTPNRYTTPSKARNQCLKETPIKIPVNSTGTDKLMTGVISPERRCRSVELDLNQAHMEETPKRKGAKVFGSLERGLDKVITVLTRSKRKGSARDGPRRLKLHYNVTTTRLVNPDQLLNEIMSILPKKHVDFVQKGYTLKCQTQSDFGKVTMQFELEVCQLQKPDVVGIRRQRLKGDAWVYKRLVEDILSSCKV
5'-AMP-activated protein kinase catalytic subunit alpha-1, sequence (Q13131 whole entry): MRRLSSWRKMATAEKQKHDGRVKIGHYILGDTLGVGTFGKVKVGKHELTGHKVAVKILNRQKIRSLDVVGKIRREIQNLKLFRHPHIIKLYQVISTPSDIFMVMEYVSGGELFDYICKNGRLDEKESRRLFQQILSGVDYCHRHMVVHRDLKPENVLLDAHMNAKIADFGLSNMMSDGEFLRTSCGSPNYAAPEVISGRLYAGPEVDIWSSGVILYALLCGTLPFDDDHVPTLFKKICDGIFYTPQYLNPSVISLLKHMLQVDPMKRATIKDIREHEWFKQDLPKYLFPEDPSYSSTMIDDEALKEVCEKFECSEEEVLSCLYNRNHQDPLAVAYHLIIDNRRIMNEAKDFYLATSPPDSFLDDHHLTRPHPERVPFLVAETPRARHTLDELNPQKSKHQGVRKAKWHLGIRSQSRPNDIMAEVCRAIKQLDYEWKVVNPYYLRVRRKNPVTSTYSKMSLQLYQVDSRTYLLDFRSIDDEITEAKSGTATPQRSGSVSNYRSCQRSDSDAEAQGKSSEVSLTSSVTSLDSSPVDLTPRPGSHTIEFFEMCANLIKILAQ
Focal adhesion kinase 1, sequence (Q05397 whole entry): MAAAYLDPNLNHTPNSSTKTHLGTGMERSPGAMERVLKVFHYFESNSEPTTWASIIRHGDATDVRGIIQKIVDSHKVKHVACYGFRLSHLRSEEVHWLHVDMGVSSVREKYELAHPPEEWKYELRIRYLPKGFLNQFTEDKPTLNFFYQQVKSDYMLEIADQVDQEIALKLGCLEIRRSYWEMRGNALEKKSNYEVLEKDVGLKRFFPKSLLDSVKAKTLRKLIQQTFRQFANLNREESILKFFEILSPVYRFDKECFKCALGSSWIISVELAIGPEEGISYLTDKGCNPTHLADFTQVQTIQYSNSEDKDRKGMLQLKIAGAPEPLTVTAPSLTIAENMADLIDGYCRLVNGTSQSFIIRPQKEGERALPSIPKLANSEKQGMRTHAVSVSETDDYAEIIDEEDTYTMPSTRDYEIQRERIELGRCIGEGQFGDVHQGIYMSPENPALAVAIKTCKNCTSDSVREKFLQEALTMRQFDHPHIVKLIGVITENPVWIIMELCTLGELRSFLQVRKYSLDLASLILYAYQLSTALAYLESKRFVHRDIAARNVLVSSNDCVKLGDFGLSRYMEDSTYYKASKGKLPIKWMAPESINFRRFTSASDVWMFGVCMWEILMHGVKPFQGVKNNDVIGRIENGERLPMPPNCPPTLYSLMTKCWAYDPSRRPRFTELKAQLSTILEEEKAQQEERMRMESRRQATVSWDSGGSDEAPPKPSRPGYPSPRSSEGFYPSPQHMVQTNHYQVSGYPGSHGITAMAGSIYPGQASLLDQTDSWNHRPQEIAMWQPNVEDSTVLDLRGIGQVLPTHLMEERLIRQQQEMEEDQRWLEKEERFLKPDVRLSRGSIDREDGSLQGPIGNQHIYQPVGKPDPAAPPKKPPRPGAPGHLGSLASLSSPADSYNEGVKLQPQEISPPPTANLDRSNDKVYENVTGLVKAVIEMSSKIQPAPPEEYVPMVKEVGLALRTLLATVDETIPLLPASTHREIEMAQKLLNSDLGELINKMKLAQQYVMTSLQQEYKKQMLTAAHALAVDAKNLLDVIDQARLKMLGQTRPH
Dual specificity mitogen-activated protein kinase kinase 2, sequence (P36507 whole entry): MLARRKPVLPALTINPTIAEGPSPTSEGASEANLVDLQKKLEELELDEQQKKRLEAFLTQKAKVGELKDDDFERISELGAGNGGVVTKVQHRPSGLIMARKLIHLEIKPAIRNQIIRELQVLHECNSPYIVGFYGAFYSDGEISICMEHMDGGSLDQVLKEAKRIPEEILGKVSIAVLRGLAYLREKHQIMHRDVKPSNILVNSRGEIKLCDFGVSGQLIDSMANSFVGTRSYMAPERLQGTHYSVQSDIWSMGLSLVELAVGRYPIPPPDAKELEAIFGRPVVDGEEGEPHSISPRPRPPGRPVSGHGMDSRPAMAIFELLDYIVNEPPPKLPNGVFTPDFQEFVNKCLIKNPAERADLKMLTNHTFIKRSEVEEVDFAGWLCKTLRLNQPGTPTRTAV
Aurora kinase B, sequence (Q96GD4 whole entry): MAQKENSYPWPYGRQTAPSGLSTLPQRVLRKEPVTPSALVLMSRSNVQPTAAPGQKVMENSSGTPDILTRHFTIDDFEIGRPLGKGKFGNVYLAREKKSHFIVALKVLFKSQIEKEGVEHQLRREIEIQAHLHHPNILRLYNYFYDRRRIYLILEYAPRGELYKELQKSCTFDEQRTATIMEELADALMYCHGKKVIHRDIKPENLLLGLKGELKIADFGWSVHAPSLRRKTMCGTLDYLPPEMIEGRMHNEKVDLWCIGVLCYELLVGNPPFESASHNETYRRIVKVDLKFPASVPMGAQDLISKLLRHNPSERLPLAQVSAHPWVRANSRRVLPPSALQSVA

Ki [1] | Ki [2] | Ki [3] | Ki [4] | Ki [5] | Ki [6] | Ki [7] | Ki (Aurora kinase A) | Ki [9] | Ki [11] | Ki [12] | Ki [14] | Ki (Activated CDC42 kinase 1) | Ki [15] | Ki [16] | Ki (Misshapen-like kinase 1) | Ki [17] | Ki [18] | Ki [19] | Ki (Aurora kinase B) | Compound | further results
> 3.16 µM (inactive) | > 1.58 µM (inactive) | > 3.16 µM (inactive) | > 1.58 µM (inactive) | > 1.58 µM (inactive) | 0.316 µM (active) | > 1.58 µM (inactive) | > 0.794 µM (inactive) | 0.1 µM (active) | 0.0631 µM (active) | > 2 µM (inactive) | > 2.51 µM (inactive) | > 3.98 µM (inactive) | > 1.58 µM (inactive) | > 1.26 µM (inactive) | > 7.94 µM (inactive) | > 1.58 µM (inactive) | 0.2 µM (active) | > 2.51 µM (inactive) | > 1.26 µM (inactive) | CS(=O)(=O)N(Cc1ccc2[nH]c(=O)c3cccn3c2c1)C1CC1 | Ki [8]: 0.0398 µM (active); Ki [10]: 0.631 µM (active); Ki [13]: 0.158 µM (active); Ki [20]: > 100 µM (inactive); Ki [21]: > 1.58 µM (inactive); Ki [22]: > 2 µM (inactive); Ki [23]: > 1.58 µM (inactive); Ki [24]: > 3.98 µM (inactive); Ki [25]: > 3.98 µM (inactive); Ki [26]: > 1.58 µM (inactive); Ki [27]: > 3.98 µM (inactive); Ki [28]: > 3.98 µM (inactive); Ki [29]: > 3.98 µM (inactive); Ki [30]: > 2.51 µM (inactive)
– | – | – | – | – | – | – | – | – | – | – | – | – | – | – | – | – | – | – | – | Cc1cc(NC(c2ccc(Cl)cc2)c2ccc3cccnc3c2O)no1 (stereo not given) | EC50 [31]: 0.416 µM (active)
– | – | – | – | – | – | – | – | – | – | – | – | – | – | – | – | – | – | – | – | CS(=O)(=O)Nc1ccc(Nc2ccc3[nH]nc(N)c3c2)cc1 | Ki [32]: > 6.31 µM (inactive); Ki (Focal adhesion kinase 1): > 6.31 µM (inactive); Ki [33]: > 5.01 µM (inactive)
> 3.16 µM (inactive) | > 2.51 µM (inactive) | 0.794 µM (active) | 0.398 µM (active) | 2 µM (active) | > 1.58 µM (inactive) | > 3.16 µM (inactive) | > 1.58 µM (inactive) | 0.00316 µM (active) | 0.1 µM (active) | 0.00398 µM (active) | > 2.51 µM (inactive) | > 3.98 µM (inactive) | > 2.51 µM (inactive) | > 2.51 µM (inactive) | > 2.51 µM (inactive) | 0.316 µM (active) | 0.398 µM (active) | 1.26 µM (active) | > 3.98 µM (inactive) | O=C(Nc1n[nH]c2ccc(-c3cn(Cc4ccccc4)nn3)cc12)c1cc(F)ccc1F | Ki [32]: > 6.31 µM (inactive); Ki (Focal adhesion kinase 1): > 6.31 µM (inactive); Ki [21]: > 3.16 µM (inactive); Ki [22]: 0.002 µM (active); Ki [23]: 0.398 µM (active); Ki [24]: > 2.51 µM (inactive); Ki [33]: 2 µM (active); Ki [25]: 2.51 µM (active); Ki [26]: > 2.51 µM (inactive); Ki [27]: > 3.98 µM (inactive); Ki [28]: 0.0501 µM (active); Ki [29]: > 3.98 µM (inactive)
